# Assay results reported in PubChem BioAssay (NCI).
# Several values for one entry are separate records, joined by “and”; a condition that tells them apart may be missing. Identical values can stand only once.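 Results reflect a 48-hour exposure of cells in 96-well plates to compound at five concentrations. GI50 = concentration required for 50% inhibition of growth. TGI: total growth inhibition.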
# Assays:
# Assay in all cases: NCI anticancer screen, dose series, 48 h
# [1] = test system: SN12C renal
# [2] = test system: SW-620 colon
# [3] = test system: K-562 leukemia
# [4] = test system: SNB-75 CNS
# [5] = test system: KM12 colon
# [6] = test system: KM20L2 colon
# [7] = test system: DLD-1 colon
# [8] = test system: HT29 colon
# [9] = test system: CCRF-CEM leukemia
# [10] = test system: LXFL 529 NSCLC
# [11] = test system: SNB-78 CNS
# [12] = test system: PC-3 prostate
SMILES,TGI [1],TGI [2],TGI [3],TGI [4],TGI [5],TGI [6],TGI [7],TGI [8],TGI [9],TGI [10],TGI [11],GI50 [1],GI50 [2],GI50 [3],GI50 [4],GI50 [5],GI50 [12],TGI [12],GI50 [8],GI50 [9]
O=S(O)CCCCSSCc1ccccc1CSSCCCCS(=O)O,> 100 µM,89.5 µM,82.3 µM,> 100 µM,59.6 µM,> 100 µM,> 100 µM,20.6 µM,42.5 µM,24.8 µM,,,,,,,,,,
O=C(/C=C/c1c(O)ccc2ccccc12)c1ccc2ccccc2c1,> 100 µM,> 100 µM,> 100 µM,> 100 µM,> 100 µM,> 100 µM,> 100 µM,> 100 µM,> 100 µM,,> 100 µM,,,,,,,,,
O=C(CSc1nnc(-c2ccccc2NC(=O)C(F)(F)F)c(=O)[nH]1)NC(=O)Nc1ccccc1,> 100 µM,> 100 µM,> 100 µM,45 µM,> 100 µM,,44.7 µM,> 100 µM,> 100 µM,> 100 µM,> 100 µM,,,,,,,,,
CC(C)(C)N1CC2(CCCCC2)C1=O,> 100 µM,> 100 µM,> 100 µM,> 100 µM,> 100 µM,> 100 µM,> 100 µM,> 100 µM,> 100 µM,,> 100 µM,,,,,,,,,
COc1ccc(-n2cc(-c3ccc(Cl)c(Cl)c3)nc2SCc2cccc(C#N)c2)cc1,35.7 µM,> 100 µM,> 100 µM,53.4 µM,> 100 µM,,,> 100 µM,> 100 µM,,,14 µM,60 µM,> 100 µM,17 µM,> 100 µM,34.1 µM,> 100 µM,4.7 µM,> 100 µM
CN=NN(C)C(=O)NC,> 100 µM,> 100 µM,> 100 µM,> 100 µM,> 100 µM,> 100 µM,> 100 µM,> 100 µM,> 100 µM,> 100 µM,,,,,,,,,,
Fc1ccc(Nc2cc(-n3nnc4ccccc43)nc3ccccc23)cc1,> 69.3 µM,> 100 µM,> 100 µM,45.8 µM,> 100 µM,,,> 100 µM,> 100 µM,,,30 µM,> 100 µM,> 100 µM,14.1 µM,> 100 µM,20.3 µM,> 100 µM,43.9 µM,> 100 µM
c1ccc2c3ccn4cc5c(cc4c-3nc2c1)CCCC5,16.2 µM,9.85 µM,12.6 µM,12.3 µM,8.59 µM,,,13 µM,> 100 µM,,,3.57 µM,,1.95 µM,3.12 µM,,,12.1 µM,2.55 µM,3.52 µM
NC(=O)C(=CNc1nc(-c2ccc(Cl)c(Cl)c2)cs1)C(N)=O,> 100 µM,> 100 µM,> 100 µM,> 100 µM,> 100 µM,,,> 100 µM,> 100 µM,,,> 100 µM,> 100 µM,75.8 µM,> 100 µM,> 100 µM,> 100 µM,> 100 µM,> 100 µM,20.4 µM
NC(N)=N/N=C/c1cc(Cl)cc(Cl)c1O,> 100 µM,> 100 µM,> 100 µM,89.1 µM,> 100 µM,,,> 100 µM,> 100 µM,,,,,,,,,> 100 µM,,
O=C(Nc1cccc(Cl)c1)c1cc2ccccc2cc1O,> 100 µM,> 100 µM,> 100 µM,> 100 µM,> 100 µM,,,> 100 µM,> 100 µM,,,2.05 µM and 1.76 µM,3.14 µM and 3.1 µM,1.38 µM and 0.888 µM,1.62 µM and 1.55 µM,3.17 µM and 2.71 µM,1.73 µM and 2 µM,> 100 µM,45.8 µM and 29.1 µM,5.58 µM and 8.61 µM
CCCCCCCCCc1cc(=O)c2c(O)cccc2o1,> 100 µM,> 100 µM,> 100 µM,> 10 µM,> 100 µM,,> 100 µM,> 10 µM,> 100 µM,> 100 µM,> 100 µM,,,,,,,,,
OCCCCC#Cc1ccccc1C#Cc1cccc(O)c1,40 µM,33.3 µM,40.4 µM,38.1 µM,41.3 µM,,,31.8 µM,48.6 µM,,,17.9 µM,17.5 µM,19.2 µM,16.1 µM,17.1 µM,16.9 µM,38.1 µM,17.1 µM,18.8 µM
N#CC1Nc2ccccc2[C@@H](O)C1O (some centres undefined),> 100 µM,> 100 µM,> 100 µM,> 100 µM,> 100 µM,,,> 100 µM,> 100 µM,,,,,,,,,> 100 µM,,
CC(C)c1ccccc1S(=O)c1ccccc1C(C)(C)O (centres undefined),> 100 µM,> 100 µM,> 100 µM,> 100 µM,> 100 µM,,,> 100 µM,> 100 µM,,,,,,,,,> 100 µM,,
O=C(N/N=C\c1cc(Br)ccc1O)c1ccncc1,> 100 µM,> 100 µM,> 100 µM,51.1 µM,> 100 µM,,,> 100 µM,> 100 µM,,,4.63 µM,2.66 µM,3.37 µM,4.83 µM,1.97 µM,1.87 µM,> 100 µM,5.7 µM,0.423 µM
COc1ccccc1/C=C/c1cnccn1,> 10 µM,> 10 µM,> 10 µM,> 10 µM,> 10 µM,,,> 10 µM,> 10 µM,,,,,,,,,> 10 µM,,
Cc1c(C2Nc3ccccc3C2C)[nH]c2ccccc12 (centres undefined),24.1 µM,32.7 µM,50.4 µM,29.8 µM,29.1 µM,,,23.1 µM,46.6 µM,,,11.4 µM,2.33 µM,0.89 µM,5.06 µM,7.45 µM,10.6 µM,32.3 µM,4.48 µM,0.801 µM
COc1cc(NC(C)CCCN)c2nccc(C)c2c1OC (centres undefined),25.8 µM,15 µM,53.9 µM,29.4 µM,35.1 µM,,,20.9 µM,48 µM,,,11.4 µM,3.54 µM,19.2 µM,14.1 µM,16.7 µM,10.5 µM,34 µM,4.72 µM,15.4 µM
COc1cc2cn3c4ccc(O)cc4[nH]c(=O)c3c2cc1OC,1.98 µM,1.83 µM,1.68 µM,1.47 µM,1.48 µM,,,0.469 µM,,,,0.0435 µM,< 0.0119 µM,< 0.0117 µM,0.0197 µM,0.0451 µM,0.0461 µM,2.02 µM,0.025 µM,0.0224 µM
CC(=O)O[C@@H]1C[C@]2(C(C)C)O[C@@]1(C)[C@@H]1CCC(C)=C1[C@@H]2OC(=O)/C=C/c1ccccc1,> 100 µM,> 100 µM,> 100 µM,> 100 µM,> 100 µM,,,> 100 µM,> 100 µM,,,10.4 µM,39 µM,33.7 µM,27.9 µM,40 µM,8.33 µM,> 100 µM,30.6 µM,31.3 µM
O=C(Nc1cccc(Cl)c1Cl)c1cccc(NC2=C(Cl)C(=O)N(Cc3ccccc3)C2=O)c1,> 100 µM,> 100 µM,37.5 µM,> 100 µM,> 100 µM,,,> 100 µM,> 100 µM,,,30.2 µM,20.1 µM,5.32 µM,> 100 µM,82.8 µM,26.9 µM,97.4 µM,79.9 µM,14 µM
CCCS(=O)(=O)Nc1ccc(Nc2c3ccccc3nc3ccccc23)c(OC)c1,3.18 µM,21.3 µM,> 42.7 µM,6.49 µM,14.7 µM,,,7.16 µM,0.499 µM,,,,,,,,,17.6 µM,,
Cc1cc(NC(=O)c2ccc(C)c(Nc3nccc(-c4cccnc4)n3)c2)cc(-n2cnc(C)c2)c1,12.8 µM,26.4 µM,4.03 µM,2.81 µM,14.7 µM,,,5.33 µM,> 50 µM,,,0.005 µM,4.7 µM,0.0915 µM,1.1 µM,4.83 µM,4.76 µM,17.3 µM,1.73 µM,0.134 µM
COc1cc2c(cc1OC)C13CCN4CC5=CCOC6CC(=O)N2C1C6C5CC43O (centres undefined),> 100 µM,> 100 µM,> 100 µM,> 100 µM,> 100 µM,,,> 100 µM,> 100 µM,,,,,,,,,> 100 µM,,
CN(C)Cc1c[nH]c2c1C(=O)c1c(c(O)c3ccccc3c1O)C2=O,19.1 µM,14.6 µM,> 100 µM,53.5 µM,20.9 µM,,,> 100 µM,20.7 µM,,,5.62 µM,3.37 µM,2.24 µM,20 µM,4.66 µM,5.71 µM,22.2 µM,16.7 µM,3.14 µM
COC(=O)[C@@H](NC(=O)[C@@H](OC)[C@@H]1Cc2cc3cc(OC4CC(OC5CC(O)C(O)C(C)O5)C(O)C(C)O4)c(C)c(O)c3c(O)c2C(=O)[C@H]1OC1CC(OC2CC(OC3CC(C)(O)C(O)C(C)O3)C(O)C(C)O2)C(O)C(C)O1)C(C)C (some centres undefined),> 32.5 µM,> 32.5 µM,> 32.5 µM,1.46 µM,> 32.5 µM,,,> 32.5 µM,> 32.5 µM,,,0.145 µM,0.121 µM,0.139 µM,0.0849 µM,0.154 µM,0.149 µM,> 32.5 µM,0.129 µM,0.122 µM
